The target in one assay is Paired box protein Pax-8 (Homo sapiens, UniProt Q06710). Nature of the assay: inhibitors of PAX8-driven TPO luciferase reporter, dose response, RMG-I cells, cherry-pick (AID 687027).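 Note: luciferase reporter driven by Pax8 target thyroperoxidase promoter measured by SteadyGlo luminescence.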 It counts as functional, cell-based. For orientation: In a reporter assay the amount or activity of a reporter protein is the signal.
The target in the next assay is Galanin receptor type 3 (Homo sapiens, UniProt O60755). Kind of assay: Fluorescence-based cell-based primary high throughput dose response assay to identify antagonists of the Galanin Receptor 3 (GalR3). The format is functional.
Galanin receptor type 3, sequence (O60755 whole entry): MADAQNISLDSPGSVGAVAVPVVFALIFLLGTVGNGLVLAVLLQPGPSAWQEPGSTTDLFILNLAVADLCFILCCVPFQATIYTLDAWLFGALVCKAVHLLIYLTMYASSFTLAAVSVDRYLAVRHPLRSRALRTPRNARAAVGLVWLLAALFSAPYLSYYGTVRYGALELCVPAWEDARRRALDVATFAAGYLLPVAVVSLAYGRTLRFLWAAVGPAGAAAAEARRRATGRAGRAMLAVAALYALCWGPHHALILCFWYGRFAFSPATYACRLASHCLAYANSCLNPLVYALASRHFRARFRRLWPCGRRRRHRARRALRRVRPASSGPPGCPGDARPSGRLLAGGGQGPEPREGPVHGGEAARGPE
Assay [1] is described as follows: non-specific cell cytotoxicity, dose response, cytotoxicity control for PAX8 inhibitor project, plate reader, dry powder samples (AID 743021). The format is functional, cell-based.
A further assay addresses Protein S100-A4 (Homo sapiens, UniProt P26447). Nature of the assay: S100A4-myosin IIA binding inhibitor potency, dose response, biochemical, fluorescence polarization, cherry-picked hits (AID 687001). It counts as functional.
Assay [2] has as its target T1, Polyadenylate-binding protein 1 (Homo sapiens, UniProt P11940). Kind of assay: PABP1 MLLE–PAM2 binding inhibitor potency, dose response, biochemical, fluorescence polarization, FITC-PAM2 peptide (AID 602259). It counts as functional. The following applies: read-out: IC50_Mean. On the technique in general: Fluorescence polarisation rises when a labelled molecule tumbles more slowly, as on binding a larger partner.

Assay [3] deals with T1, Polyadenylate-binding protein 1. Kind of assay: PABP1 MLLE–PAM2 interaction inhibitors, dose response, miRNA deadenylation inhibitor project, biochemical, fluorescence polarization, Cy5-PAM2 peptide, secondary (AID 602260). The following applies: read-out: IC50_Mean. It counts as functional.
The subject of another assay is Vero. Kind of assay: Vero cell toxicity, dose response, cytotoxicity control, plate reader, cherry-pick samples (AID 687020). It counts as functional, cell-based. The following applies: Chlorocebus sabaeus.
In assay [4] the target is Nuclear receptor subfamily 5 group A member 2 (Homo sapiens, UniProt O00482). It counts as functional, cell-based.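 Note: HEK293T cells transfected with LRH-1 and a StAR promoter luciferase reporter; potency for inhibitors that lower LRH-1 driven reporter light.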
Nuclear receptor subfamily 5 group A member 2, sequence (O00482 whole entry): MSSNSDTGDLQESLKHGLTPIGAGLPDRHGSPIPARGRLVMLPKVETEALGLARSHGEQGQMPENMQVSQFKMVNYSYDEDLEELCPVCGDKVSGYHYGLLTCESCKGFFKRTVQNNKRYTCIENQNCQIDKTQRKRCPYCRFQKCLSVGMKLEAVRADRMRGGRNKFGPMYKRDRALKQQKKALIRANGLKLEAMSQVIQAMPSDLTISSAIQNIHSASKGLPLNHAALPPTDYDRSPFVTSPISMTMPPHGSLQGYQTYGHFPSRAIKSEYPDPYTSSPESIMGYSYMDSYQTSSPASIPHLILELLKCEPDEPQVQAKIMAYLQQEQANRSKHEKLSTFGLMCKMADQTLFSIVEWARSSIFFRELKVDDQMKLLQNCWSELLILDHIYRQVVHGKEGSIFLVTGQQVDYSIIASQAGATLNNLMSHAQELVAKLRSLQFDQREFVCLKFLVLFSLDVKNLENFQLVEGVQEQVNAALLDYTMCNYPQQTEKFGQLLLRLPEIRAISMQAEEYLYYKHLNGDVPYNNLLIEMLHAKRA
Assay [5] can be described thus: StAR promoter reporter inhibition counter-screen, dose response, counter-screen for LRH-1 inverse agonist project, cell-based, luminescence, luciferase reporter (AID 651969). It counts as functional. In general terms: Counterscreens check selectivity or assay interference.
Another assay has as its target Steroidogenic factor 1 (Homo sapiens, UniProt Q13285). Kind of assay: Counterscreen for inverse agonists of the liver receptor homolog-1 (LRH-1; NR5A2): Luminescence-based cell-based high throughput dose response assay to identify inverse agonists of the Steroidogenic Factor 1 Nuclear Receptor (SF1; NR5A1). The format is functional.
The nature of assay [6]: HEK293 cell cytotoxicity, dose response, cytotoxicity control, plate reader, cherry-picked samples (AID 743446). The format is functional, cell-based.
Assay [7] is described as follows: A549 cell cytotoxicity, dose response, cytotoxicity control, plate reader, cherry-pick, antagonist series (AID 743412). It counts as functional, cell-based.
Assay [8] can be described thus: HepG2 cell cytotoxicity, dose response, cytotoxicity control, plate reader, cherry-pick, antagonist series (AID 743416). The format is functional, cell-based.
The target in assay [9] is 5-hydroxytryptamine receptor 2A (Mus musculus, UniProt P35363). The format is functional, cell-based.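 Note: CHO-K1 cells with tagged receptor and beta-arrestin; agonist potency measured as compound-induced activation of the receptor.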
5-hydroxytryptamine receptor 2A, sequence (P35363 whole entry): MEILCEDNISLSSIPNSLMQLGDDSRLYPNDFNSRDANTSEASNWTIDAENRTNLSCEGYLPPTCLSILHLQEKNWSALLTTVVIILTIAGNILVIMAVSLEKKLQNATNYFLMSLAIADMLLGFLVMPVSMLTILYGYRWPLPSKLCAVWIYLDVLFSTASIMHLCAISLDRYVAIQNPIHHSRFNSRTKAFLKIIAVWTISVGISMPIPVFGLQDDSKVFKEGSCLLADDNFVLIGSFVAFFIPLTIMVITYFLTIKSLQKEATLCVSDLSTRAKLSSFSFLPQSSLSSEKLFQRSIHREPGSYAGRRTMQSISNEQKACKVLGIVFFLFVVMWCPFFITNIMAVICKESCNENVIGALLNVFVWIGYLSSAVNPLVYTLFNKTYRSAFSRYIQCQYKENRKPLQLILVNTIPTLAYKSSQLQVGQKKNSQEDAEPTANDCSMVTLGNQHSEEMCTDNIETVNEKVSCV
The next assay has as its target Mu-type opioid receptor (Homo sapiens, UniProt P35372). It counts as functional, cell-based.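 Note: U2OS cells with beta-arrestin recruitment to OPRM1 by beta-gal complementation.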
Assay [10] concerns the target Mitochondrial peptide methionine sulfoxide reductase (Bos taurus, UniProt P54149). Nature of the assay: Absorbance-based biochemical high throughput dose response assay for activators of Methionine sulfoxide reductase A (MsrA). The format is functional.
The target in the next assay is T2, Protein RecA (Mycobacterium tuberculosis, UniProt P9WHJ3).
T2 sequence (P9WHJ3 whole entry): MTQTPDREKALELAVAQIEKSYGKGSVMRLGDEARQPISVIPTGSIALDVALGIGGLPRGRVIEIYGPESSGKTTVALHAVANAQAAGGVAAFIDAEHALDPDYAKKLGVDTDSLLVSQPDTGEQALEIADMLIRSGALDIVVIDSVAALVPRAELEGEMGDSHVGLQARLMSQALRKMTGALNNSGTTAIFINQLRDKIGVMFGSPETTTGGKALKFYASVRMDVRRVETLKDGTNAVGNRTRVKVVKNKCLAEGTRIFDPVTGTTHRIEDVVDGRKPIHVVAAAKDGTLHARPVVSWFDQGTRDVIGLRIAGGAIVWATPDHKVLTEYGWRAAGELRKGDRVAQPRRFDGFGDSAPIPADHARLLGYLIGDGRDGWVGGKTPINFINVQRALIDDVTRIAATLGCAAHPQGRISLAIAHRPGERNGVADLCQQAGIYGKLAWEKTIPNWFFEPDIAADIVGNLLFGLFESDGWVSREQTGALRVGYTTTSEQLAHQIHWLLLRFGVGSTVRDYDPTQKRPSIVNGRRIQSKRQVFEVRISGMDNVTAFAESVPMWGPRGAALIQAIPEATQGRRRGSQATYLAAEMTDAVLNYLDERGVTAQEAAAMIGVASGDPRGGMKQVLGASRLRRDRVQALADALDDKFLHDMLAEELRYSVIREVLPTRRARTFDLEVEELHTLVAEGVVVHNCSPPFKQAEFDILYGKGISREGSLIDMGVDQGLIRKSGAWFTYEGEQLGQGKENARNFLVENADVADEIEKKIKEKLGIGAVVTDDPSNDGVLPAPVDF
Nature of the assay: Fluorescence Cell-Free Homogeneous Dose Retest to Identify Inhibitors of RecA-Intein Splicing Activity. [Related pubchem assays (depositor defined):AID2097, AID2223, AID489010, AID492950]. The format is functional.

The target of a further assay is Caspase-6 (Homo sapiens, UniProt P55212). Kind of assay: human caspase-6 inhibitors, dose response, biochemical, VEID-R110 fluorescence, cherry-pick (AID 720632).
Assay [11] has as its target Matrix metalloproteinase-14 (Homo sapiens, UniProt P50281). Nature of the assay: Dose Response confirmation of uHTS hits for a small molecule inhibitors of MT1-MMP activation in a fluorescence assay set 2. The format is functional.
In another assay the target is Genome polyprotein (dengue virus type 2, UniProt P29990). Nature of the assay: Dengue-2 NS5 methyltransferase inhibitors, primary screen, biochemical, confirmation dose response (AID 588689). It counts as functional.
Genome polyprotein, sequence (P29990 2492-3391 limits assumed): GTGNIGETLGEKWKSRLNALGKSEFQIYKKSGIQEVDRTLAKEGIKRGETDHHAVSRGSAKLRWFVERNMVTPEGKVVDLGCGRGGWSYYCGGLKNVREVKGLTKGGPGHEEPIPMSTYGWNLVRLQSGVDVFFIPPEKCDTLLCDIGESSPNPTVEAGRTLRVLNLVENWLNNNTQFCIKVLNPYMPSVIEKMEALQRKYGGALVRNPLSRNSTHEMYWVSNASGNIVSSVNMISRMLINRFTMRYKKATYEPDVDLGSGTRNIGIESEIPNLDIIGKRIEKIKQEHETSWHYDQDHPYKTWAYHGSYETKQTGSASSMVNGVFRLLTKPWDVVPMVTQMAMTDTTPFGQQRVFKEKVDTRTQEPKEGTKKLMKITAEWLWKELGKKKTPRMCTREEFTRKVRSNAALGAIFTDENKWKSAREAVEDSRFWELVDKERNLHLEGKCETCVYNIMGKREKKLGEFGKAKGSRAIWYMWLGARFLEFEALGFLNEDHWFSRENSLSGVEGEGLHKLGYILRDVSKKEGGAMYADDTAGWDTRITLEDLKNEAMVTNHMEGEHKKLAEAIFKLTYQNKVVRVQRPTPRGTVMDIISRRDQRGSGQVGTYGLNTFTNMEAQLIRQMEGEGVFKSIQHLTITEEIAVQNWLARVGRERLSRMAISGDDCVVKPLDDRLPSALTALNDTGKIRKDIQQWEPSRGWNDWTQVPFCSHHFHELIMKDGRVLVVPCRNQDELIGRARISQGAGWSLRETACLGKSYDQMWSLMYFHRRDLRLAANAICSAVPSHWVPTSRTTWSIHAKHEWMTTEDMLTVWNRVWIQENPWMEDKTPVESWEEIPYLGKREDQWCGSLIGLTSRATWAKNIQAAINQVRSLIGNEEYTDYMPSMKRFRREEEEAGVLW
Assay [12] concerns the target T3, Replicative DNA helicase DnaB (Mycobacterium tuberculosis, UniProt P9WMR3).
T3 sequence (P9WMR3 whole entry): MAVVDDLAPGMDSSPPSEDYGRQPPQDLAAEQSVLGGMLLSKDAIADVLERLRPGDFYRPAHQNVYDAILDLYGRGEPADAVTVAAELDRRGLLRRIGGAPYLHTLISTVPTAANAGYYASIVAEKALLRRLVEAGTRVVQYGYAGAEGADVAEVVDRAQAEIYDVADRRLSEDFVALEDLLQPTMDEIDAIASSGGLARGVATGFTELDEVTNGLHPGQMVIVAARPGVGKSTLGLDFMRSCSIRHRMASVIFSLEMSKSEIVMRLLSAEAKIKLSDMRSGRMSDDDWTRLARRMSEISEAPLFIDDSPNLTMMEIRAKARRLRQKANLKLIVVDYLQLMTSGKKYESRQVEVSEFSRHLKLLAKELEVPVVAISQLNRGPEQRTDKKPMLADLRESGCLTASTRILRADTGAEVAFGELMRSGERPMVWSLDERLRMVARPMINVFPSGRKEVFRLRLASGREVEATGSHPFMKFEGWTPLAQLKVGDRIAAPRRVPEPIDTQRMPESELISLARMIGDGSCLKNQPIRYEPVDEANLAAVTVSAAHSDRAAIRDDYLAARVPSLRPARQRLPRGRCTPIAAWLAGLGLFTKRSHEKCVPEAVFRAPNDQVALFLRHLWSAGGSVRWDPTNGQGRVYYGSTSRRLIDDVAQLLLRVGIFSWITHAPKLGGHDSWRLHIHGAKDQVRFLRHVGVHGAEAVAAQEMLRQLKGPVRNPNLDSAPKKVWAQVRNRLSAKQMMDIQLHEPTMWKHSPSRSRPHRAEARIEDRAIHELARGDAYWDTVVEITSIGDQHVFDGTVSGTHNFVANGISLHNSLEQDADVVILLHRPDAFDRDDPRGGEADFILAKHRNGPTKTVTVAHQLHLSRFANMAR
Kind of assay: DnaB intein splicing inhibitors, dose response, biochemical, cell-free fluorescence (AID 449749). It counts as functional.

Assay [13] addresses Fructose-bisphosphate aldolase (Mycobacterium tuberculosis, UniProt P9WQA3). Kind of assay: Fluorescence-based biochemical high throughput dose response assay for inhibitors of the fructose-bisphosphate aldolase (FBA) of M. tuberculosis. The format is functional.

SMILES strings stand for the structures. Activity calls are given as the source filed them.

T1 sequence (P11940 whole entry): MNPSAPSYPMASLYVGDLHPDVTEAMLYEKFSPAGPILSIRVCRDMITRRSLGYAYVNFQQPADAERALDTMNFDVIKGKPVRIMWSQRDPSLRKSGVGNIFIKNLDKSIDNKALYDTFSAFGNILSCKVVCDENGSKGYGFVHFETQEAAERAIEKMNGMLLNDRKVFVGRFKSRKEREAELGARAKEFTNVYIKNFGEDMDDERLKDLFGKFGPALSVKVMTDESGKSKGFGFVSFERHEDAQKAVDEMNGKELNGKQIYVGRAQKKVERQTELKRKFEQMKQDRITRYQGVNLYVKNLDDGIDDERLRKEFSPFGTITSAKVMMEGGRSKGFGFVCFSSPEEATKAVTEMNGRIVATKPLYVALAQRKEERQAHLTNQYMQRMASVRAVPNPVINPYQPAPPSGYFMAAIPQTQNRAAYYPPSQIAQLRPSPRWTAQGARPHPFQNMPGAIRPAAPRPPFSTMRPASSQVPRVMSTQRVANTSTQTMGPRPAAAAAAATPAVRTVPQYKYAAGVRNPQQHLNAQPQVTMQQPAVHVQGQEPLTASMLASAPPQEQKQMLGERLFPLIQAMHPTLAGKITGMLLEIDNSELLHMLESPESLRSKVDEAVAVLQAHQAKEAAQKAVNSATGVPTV
Steroidogenic factor 1, sequence (Q13285 whole entry): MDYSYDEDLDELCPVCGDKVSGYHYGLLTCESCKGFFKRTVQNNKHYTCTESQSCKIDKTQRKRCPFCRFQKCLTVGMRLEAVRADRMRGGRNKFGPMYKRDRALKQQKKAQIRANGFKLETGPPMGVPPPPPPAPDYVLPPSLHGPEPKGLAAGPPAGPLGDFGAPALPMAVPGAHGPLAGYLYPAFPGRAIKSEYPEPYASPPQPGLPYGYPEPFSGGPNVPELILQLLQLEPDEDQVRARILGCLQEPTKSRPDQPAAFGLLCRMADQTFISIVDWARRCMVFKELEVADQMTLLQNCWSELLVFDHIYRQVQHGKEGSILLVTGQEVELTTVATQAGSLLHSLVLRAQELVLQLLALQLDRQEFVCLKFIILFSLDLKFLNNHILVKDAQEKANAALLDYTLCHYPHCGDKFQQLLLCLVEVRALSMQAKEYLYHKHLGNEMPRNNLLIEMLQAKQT
Fructose-bisphosphate aldolase, sequence (P9WQA3 whole entry): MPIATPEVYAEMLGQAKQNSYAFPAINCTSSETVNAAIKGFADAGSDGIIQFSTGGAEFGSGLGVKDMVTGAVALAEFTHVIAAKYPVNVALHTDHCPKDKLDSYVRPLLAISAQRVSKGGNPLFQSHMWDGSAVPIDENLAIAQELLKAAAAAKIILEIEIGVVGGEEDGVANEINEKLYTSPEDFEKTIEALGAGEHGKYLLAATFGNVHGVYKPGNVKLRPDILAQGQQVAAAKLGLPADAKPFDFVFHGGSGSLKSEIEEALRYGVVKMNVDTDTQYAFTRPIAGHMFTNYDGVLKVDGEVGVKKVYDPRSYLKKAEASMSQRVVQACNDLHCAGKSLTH
Paired box protein Pax-8, sequence (Q06710 whole entry): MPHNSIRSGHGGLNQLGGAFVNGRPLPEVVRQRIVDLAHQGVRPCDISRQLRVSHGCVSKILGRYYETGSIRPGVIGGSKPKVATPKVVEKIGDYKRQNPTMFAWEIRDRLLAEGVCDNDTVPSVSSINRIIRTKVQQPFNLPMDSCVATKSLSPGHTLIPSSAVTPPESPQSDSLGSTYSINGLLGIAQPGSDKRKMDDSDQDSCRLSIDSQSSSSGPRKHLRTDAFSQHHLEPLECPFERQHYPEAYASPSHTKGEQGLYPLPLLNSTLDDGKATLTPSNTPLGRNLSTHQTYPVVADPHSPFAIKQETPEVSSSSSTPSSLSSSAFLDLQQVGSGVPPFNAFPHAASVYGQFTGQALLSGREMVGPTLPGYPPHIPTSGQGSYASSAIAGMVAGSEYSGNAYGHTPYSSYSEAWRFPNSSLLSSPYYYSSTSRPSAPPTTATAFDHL
Mitochondrial peptide methionine sulfoxide reductase, sequence (P54149 whole entry): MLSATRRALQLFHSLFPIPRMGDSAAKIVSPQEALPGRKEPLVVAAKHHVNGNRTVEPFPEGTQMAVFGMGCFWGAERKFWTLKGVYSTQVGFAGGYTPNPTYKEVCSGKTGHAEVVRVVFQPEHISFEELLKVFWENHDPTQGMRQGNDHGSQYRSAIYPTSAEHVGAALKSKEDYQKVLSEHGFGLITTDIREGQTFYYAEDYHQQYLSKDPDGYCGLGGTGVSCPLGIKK
Mu-type opioid receptor, sequence (P35372 whole entry): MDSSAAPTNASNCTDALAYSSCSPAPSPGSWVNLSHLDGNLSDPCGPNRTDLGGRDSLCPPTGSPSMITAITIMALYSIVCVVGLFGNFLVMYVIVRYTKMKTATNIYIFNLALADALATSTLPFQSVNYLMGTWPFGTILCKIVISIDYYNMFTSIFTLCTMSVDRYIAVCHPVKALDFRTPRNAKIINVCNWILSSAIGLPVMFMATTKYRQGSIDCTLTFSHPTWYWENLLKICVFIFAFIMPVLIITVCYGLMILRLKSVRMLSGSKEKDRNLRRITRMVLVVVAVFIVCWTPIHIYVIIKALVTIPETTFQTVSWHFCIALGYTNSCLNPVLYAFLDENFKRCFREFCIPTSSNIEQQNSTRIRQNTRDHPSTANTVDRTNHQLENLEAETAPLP
Protein S100-A4, sequence (P26447 whole entry): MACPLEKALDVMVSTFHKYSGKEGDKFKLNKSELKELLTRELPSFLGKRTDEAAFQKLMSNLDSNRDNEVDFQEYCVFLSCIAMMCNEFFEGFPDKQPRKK

The AC50 is the concentration at which the activity in the assay is half-maximal. `NC(=O)c1cn(C2OC(CO)C(O)C2O)c2ncnc(N)c12` (configuration not stated): the AC50 at Paired box protein Pax-8 is < 0.26 µM (active); in assay [1], 0.591 µM (active). Moreover, the IC50 at Galanin receptor type 3 was 1.28 µM (active).
Regarding `Cc1cc2ccccc2n1CCNC(=O)c1ccc(Br)o1`, on Protein S100-A4, the AC50 is 6.02 µM (active). Besides, the IC50 in assay [2] and in assay [3] was > 66 µM (inactive) each time.
Regarding `CC(=O)Nc1cccc(C(=O)OC(C)C(=O)NC(=O)NC2CCCCC2)c1` (configuration not stated), in the assay on Vero, the AC50 is 23.6 µM (active).
As for `COC(=O)c1ccc(NC(=O)CSc2nc3ccc[nH]c-3n2)cc1`, the results for the IC50 (in [4]; in [5]; at Steroidogenic factor 1) were 35.9 µM (inactive), 35.9 µM (inactive) and 0.978 µM (active), respectively.
Consider `COc1ccc(S(=O)(=O)N2CCOCC2)cc1NC(=O)COc1ccc(C)cc1`, for which the AC50 in assay [6] is 28.1 µM (active); in [7], 8.06 µM (active); in assay [8] it was 8.95 µM (active).
What is called EC50 is the concentration giving half of the maximal effect. Regarding `O=C(Cn1cnc2ccccc2c1=O)N1CCN(Cc2ccc3c(c2)OCO3)CC1`, the EC50 in [9] is 16.4 µM (inactive); on Mu-type opioid receptor, 92.5 µM (inactive).
Regarding `C[n+]1c2ccccc2nc2ccc(NCCO)cc21`, the EC50 in assay [10] was 3.53 µM (active); at Protein RecA it was 2.38 µM (active). For the same molecule, the AC50 is 3.35 µM (active) at Caspase-6 and 19.9 µM (active) in [12]. The IC50 is 10.5 µM (active) in [11] and 18.6 µM (active) at Genome polyprotein.
For the molecule `CCc1c(C)c2ccc(OCC(N)=O)cc2oc1=O`, the IC50 in [13] is > 0.37 µM (active).

These data come from ChEMBL document CHEMBL1201862, “PubChem BioAssay data set” (2004).
